Molecular target: T1, human Farnesoid X Receptor (FXR) ligand binding domain (GST-FXR LBD) (Homo sapiens, UniProt Q96RI1)
T1 construct: purchased Invitrogen
T1 sequence (Q96RI1 193-472 isoform Q96RI1-2): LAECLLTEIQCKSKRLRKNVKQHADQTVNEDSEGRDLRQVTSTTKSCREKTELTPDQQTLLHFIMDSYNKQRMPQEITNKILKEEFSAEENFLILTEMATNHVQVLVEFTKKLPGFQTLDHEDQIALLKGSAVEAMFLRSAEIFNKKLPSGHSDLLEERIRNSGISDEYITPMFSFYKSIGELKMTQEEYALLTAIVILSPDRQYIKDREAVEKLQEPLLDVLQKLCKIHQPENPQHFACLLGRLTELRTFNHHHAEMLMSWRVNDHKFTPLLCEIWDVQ
Experiment: Human GST-FXR LBD co-activator interaction assay (HTRF)
Format: biochemical
Settings: GST-FXR LBD / biotin-SRC-1 peptide FRET; response relative to GW4064; read-out: FXR Co-activator interaction assay (EC50)
From the text: Human GST-FXR LBD Co-activator interaction Assay. The FXR HTRF assay is a biochemical assay measuring the interaction between FXR and a coactivator protein (SRC1). The ligand-induced interaction with a coactivator protein is a critical step in transcriptional activation by FXR. Thus, this is an assay designed to measure FXR agonist activity of compounds.
The ligand-dependent interaction between GST-FXR LBD and a peptide derived from Steroid Receptor Coactivator-1 (SRC-1) was monitored by Fluorescence Resonance Energy Transfer (FRET). […] Test compounds (in DMSO solution) and detection reagents (anti-GST-Cryptate labeled antibody and Streptavidin-XL665 conjugate; CisBio) were added in assay buffer containing 50 mM KF.
A negative control (without Streptavidin-XL665) was run with each assay and represented the background fluorescence. A reference FXR agonist, GW4064, was included in each experiment as positive control. The efficacy of each test compound was compared to that of GW4064. At each concentration, the relative activity of the test compound was expressed as Response %=(Rsample−RDMSO)/(Rpositive−RDMSO), where Rsample is the HTRF response (expressed in Delta F %) for the test compound, Rpositive is the maximal response for GW4064 at saturating concentrations, and RDMSO is the response for DMSO control. The EC50 values were calculated using GraphPad Prism (GraphPad Software) using non-linear regression curve fit (log(agonist) vs. response—variable slope (four parameters)).

Row | SMILES | EC50
1 | O=C(O)c1ccnc(N2C3CC[C@H]2CC(OCc2c(-c4ccccc4C(F)(F)F)noc2C2CC2)C3)c1 (stereo partly shown) [Example 20B, 2-(3-((5-cyclopropyl-3-(2-(trifluoromethyl)phenyl)isoxazol-4-yl)methox)-8-azabicyclo[3.2.1]octan-8-yl)isonicotinic acid] | 330 nM
2 | COC(=O)c1cc(C)nc(N2C3CC[C@H]2CC(OCc2c(-c4ccccc4C(F)(F)F)noc2C2CC2)C3)c1 (stereo partly shown) [Example 21-1A] | 300 nM
3 | Cc1cc(C(=O)O)cc(N2C3CC[C@H]2CC(OCc2c(-c4ccccc4C(F)(F)F)noc2C2CC2)C3)n1 (stereo partly shown) [Example 21-1B] | 260 nM
4 | COC(=O)c1cnc(N2C3CC[C@H]2CC(OCc2c(-c4ccccc4C(F)(F)F)noc2C2CC2)C3)nc1 (stereo partly shown) [Example 21-2A] | 120 nM
5 | O=C(O)c1cnc(N2C3CC[C@H]2CC(OCc2c(-c4ccccc4C(F)(F)F)noc2C2CC2)C3)nc1 (stereo partly shown) [Example 21-2B] | 10 nM
6 | COC(=O)c1cnc(N2C3CC[C@H]2CC(OCc2c(-c4ccccc4C(F)(F)F)noc2C2CC2)C3)cn1 (stereo partly shown) [Example 21-3A] | 180 nM
7 | O=C(O)c1cnc(N2C3CC[C@H]2CC(OCc2c(-c4ccccc4C(F)(F)F)noc2C2CC2)C3)cn1 (stereo partly shown) [Example 21-3B] | 9 nM
8 | COC(=O)c1cnc(N2C3CC[C@H]2CC(OCc2c(-c4ccccc4C(F)(F)F)noc2C2CC2)C3)cc1C(F)(F)F (stereo partly shown) [Example 21-4A] | 250 nM
9 | O=C(O)c1cnc(N2C3CC[C@H]2CC(OCc2c(-c4ccccc4C(F)(F)F)noc2C2CC2)C3)cc1C(F)(F)F (stereo partly shown) [Example 21-4B] | 20 nM
10 | COC(=O)c1ccnc(N2C3CC[C@H]2CC(OCc2c(-c4ccccc4C(F)(F)F)noc2C2CC2)C3)n1 (stereo partly shown) [Example 21-5A] | 110 nM
11 | O=C(O)c1ccnc(N2C3CC[C@H]2CC(OCc2c(-c4ccccc4C(F)(F)F)noc2C2CC2)C3)n1 (stereo partly shown) [Example 21-5B] | 10 nM
12 | COC(=O)c1cccc(N2C3CC[C@H]2CC(OCc2c(-c4ccccc4C(F)(F)F)noc2C2CC2)C3)n1 (stereo partly shown) [Example 21-6A] | 60 nM
13 | O=C(O)c1cccc(N2C3CC[C@H]2CC(OCc2c(-c4ccccc4C(F)(F)F)noc2C2CC2)C3)n1 (stereo partly shown) [Example 21-6B] | 16 nM
14 | COC(=O)c1cnc(N2C3CC[C@H]2CC(OCc2c(-c4ccccc4OC(F)F)noc2C2CC2)C3)cc1C(F)(F)F (stereo partly shown) [Example 22-1A] | 530 nM
15 | O=C(O)c1cnc(N2C3CC[C@H]2CC(OCc2c(-c4ccccc4OC(F)F)noc2C2CC2)C3)cc1C(F)(F)F (stereo partly shown) [Example 22-1B] | 20 nM
16 | COC(=O)c1ccnc(N2C3CC[C@H]2CC(OCc2c(-c4ccccc4OC(F)F)noc2C2CC2)C3)n1 (stereo partly shown) [Example 22-2A] | 60 nM
17 | O=C(O)c1ccnc(N2C3CC[C@H]2CC(OCc2c(-c4ccccc4OC(F)F)noc2C2CC2)C3)n1 (stereo partly shown) [Example 22-2B] | 9 nM
18 | COC(=O)c1cccc(N2C3CC[C@H]2CC(OCc2c(-c4ccccc4OC(F)F)noc2C2CC2)C3)n1 (stereo partly shown) [Example 22-3] | 10 nM
19 | COC(=O)c1cnc(N2C3CC[C@H]2CC(OCc2c(-c4ccccc4OC(F)F)noc2C2CC2)C3)cc1C (stereo partly shown) [Example 22-4A] | 20 nM
20 | Cc1cc(N2C3CC[C@H]2CC(OCc2c(-c4ccccc4OC(F)F)noc2C2CC2)C3)ncc1C(=O)O (stereo partly shown) [Example 22-4B] | 9 nM
21 | COC(=O)c1cc(C)nc(N2C3CC[C@H]2CC(OCc2c(-c4ccccc4OC(F)F)noc2C2CC2)C3)n1 (stereo partly shown) [Example 22-5] | 27 nM
22 | COC(=O)c1cnc(N2C3CC[C@H]2CC(OCc2c(-c4ccccc4OC(F)F)noc2C2CC2)C3)cc1Cl (stereo partly shown) [Example 22-6A] | 56 nM
23 | COC(=O)c1cnc(N2C3CC[C@H]2CC(OCc2c(-c4ccccc4OC(F)F)noc2C2CC2)C3)c(C)c1 (stereo partly shown) [Example 22-7A] | 10 nM
24 | Cc1cc(C(=O)O)cnc1N1C2CC[C@H]1CC(OCc1c(-c3ccccc3OC(F)F)noc1C1CC1)C2 (stereo partly shown) [Example 22-7B] | 5 nM
25 | Cc1cc(C(=O)O)nc(N2C3CC[C@H]2CC(OCc2c(-c4ccccc4OC(F)F)noc2C2CC2)C3)n1 (stereo partly shown) [Example 22-8] | 5 nM
26 | COC(=O)c1ccc(N2C3CC[C@H]2CC(OCc2c(-c4ccccc4OC(F)F)noc2C2CC2)C3)nn1 (stereo partly shown) [Example 22-9A] | 1030 nM
27 | O=C(O)c1ccc(N2C3CC[C@H]2CC(OCc2c(-c4ccccc4OC(F)F)noc2C2CC2)C3)nn1 (stereo partly shown) [Example 22-9B] | 17 nM
28 | COC(=O)c1cnc(N2C3CC[C@H]2CC(OCc2c(-c4ccccc4OC(F)F)noc2C2CC2)C3)nc1 (stereo partly shown) [Example 22-10A] | 360 nM

Row | SMILES | EC50
29 | O=C(O)c1cnc(N2C3CC[C@H]2CC(OCc2c(-c4ccccc4OC(F)F)noc2C2CC2)C3)nc1 (stereo partly shown) [Example 22-10B] | 8 nM
30 | COC(=O)c1cnc(N2C3CC[C@H]2CC(OCc2c(-c4ccccc4OC(F)F)noc2C2CC2)C3)cn1 (stereo partly shown) [Example 22-11A] | 110 nM
31 | O=C(O)c1cnc(N2C3CC[C@H]2CC(OCc2c(-c4ccccc4OC(F)F)noc2C2CC2)C3)cn1 (stereo partly shown) [Example 22-11B] | 10 nM
32 | COC(=O)c1ccc(N2[C@@H]3CC[C@H]2C[C@@H](OCc2c(-c4c(F)cccc4F)noc2C2CC2)C3)nc1 [Example 22-13A] | 80 nM
33 | O=C(O)c1ccc(N2[C@@H]3CC[C@H]2C[C@@H](OCc2c(-c4c(F)cccc4F)noc2C2CC2)C3)nc1 [Example 22-13B] | 9 nM
34 | COC(=O)c1cnc(N2C3CC[C@H]2CC(OCc2c(-c4c(F)cccc4F)noc2C2CC2)C3)nc1 (stereo partly shown) [Example 22-14A] | 70 nM
35 | O=C(O)c1cnc(N2C3CC[C@H]2CC(OCc2c(-c4c(F)cccc4F)noc2C2CC2)C3)nc1 (stereo partly shown) [Example 22-14B] | 13 nM
36 | COC(=O)c1cnc(N2C3CC[C@H]2CC(OCc2c(-c4c(F)cccc4F)noc2C2CC2)C3)cn1 (stereo partly shown) [Example 22-15A] | 130 nM
37 | O=C(O)c1cnc(N2[C@@H]3CC[C@H]2C[C@@H](OCc2c(-c4c(F)cccc4F)noc2C2CC2)C3)cn1 [Example 22-15B] | 28 nM
38 | COC(=O)c1cnc(N2[C@@H]3CC[C@H]2C[C@@H](OCc2c(-c4c(F)cccc4F)noc2C2CC2)C3)cc1C(F)(F)F [Example 22-16A] | 160 nM
39 | O=C(O)c1cnc(N2C3CC[C@H]2CC(OCc2c(-c4c(F)cccc4F)noc2C2CC2)C3)cc1C(F)(F)F (stereo partly shown) [Example 22-16B] | 10 nM
40 | COC(=O)c1cnc(N2[C@@H]3CC[C@H]2C[C@@H](OCc2c(-c4c(F)cccc4F)noc2C2CC2)C3)c(C2CC2)c1 [Example 22-17A] | 65 nM
41 | O=C(O)c1cnc(N2[C@@H]3CC[C@H]2C[C@@H](OCc2c(-c4c(F)cccc4F)noc2C2CC2)C3)c(C2CC2)c1 [Example 22-17B] | 3 nM
42 | COC(=O)c1cc(C)nc(N2C3CC[C@H]2CC(OCc2c(-c4c(F)cccc4F)noc2C2CC2)C3)n1 (stereo partly shown) [Example 22-18A] | 43 nM
43 | Cc1cc(C(=O)O)nc(N2C3CC[C@H]2CC(OCc2c(-c4c(F)cccc4F)noc2C2CC2)C3)n1 (stereo partly shown) [Example 22-18B] | 18 nM
44 | COC(=O)c1cc(N2C3CC[C@H]2CC(OCc2c(-c4c(F)cccc4F)noc2C2CC2)C3)nc(Cl)n1 (stereo partly shown) [Example 22-19] | 57 nM
45 | COC(=O)c1cc(Cl)nc(N2C3CC[C@H]2CC(OCc2c(-c4c(F)cccc4F)noc2C2CC2)C3)n1 (stereo partly shown) [Example 22-20] | 25 nM
46 | COC(=O)c1cnc(N2C3CC[C@H]2CC(OCc2c(-c4c(F)cccc4F)noc2C2CC2)C3)c(Br)c1 (stereo partly shown) [Example 22-21] | 29 nM
47 | COC(=O)c1cc(F)c(N2C3CC[C@H]2CC(OCc2c(-c4ccccc4OC(F)(F)F)noc2C2CC2)C3)c(F)c1 (stereo partly shown) [Example 24-1A] | 40 nM
48 | O=C(O)c1cc(F)c(N2C3CC[C@H]2CC(OCc2c(-c4ccccc4OC(F)(F)F)noc2C2CC2)C3)c(F)c1 (stereo partly shown) [Example 24-1B] | 8 nM
49 | COC(=O)c1cc(F)c(N2C3CC[C@H]2CC(OCc2c(-c4ccccc4OC(F)F)noc2C2CC2)C3)c(F)c1 (stereo partly shown) [Example 25-1A] | 28 nM
50 | O=C(O)c1cc(F)c(N2C3CC[C@H]2CC(OCc2c(-c4ccccc4OC(F)F)noc2C2CC2)C3)c(F)c1 (stereo partly shown) [Example 25-1B] | 3 nM
51 | COC(=O)c1cc(F)c(N2C3CC[C@H]2CC(OCc2c(-c4ccccc4C(F)(F)F)noc2C2CC2)C3)c(F)c1 (stereo partly shown) [Example 25-2A] | 420 nM
52 | O=C(O)c1cc(F)c(N2C3CC[C@H]2CC(OCc2c(-c4ccccc4C(F)(F)F)noc2C2CC2)C3)c(F)c1 (stereo partly shown) [Example 25-2B] | 5 nM
53 | COC(=O)c1ccc(N2C3CC[C@H]2CC(OCc2c(-c4c(F)cccc4F)noc2C2CC2)C3)c(F)c1 (stereo partly shown) [Example 25-3A] | 80 nM
54 | O=C(O)c1ccc(N2C3CC[C@H]2CC(OCc2c(-c4c(F)cccc4F)noc2C2CC2)C3)c(F)c1 (stereo partly shown) [Example 25-3B] | 0.9 nM
55 | O=C(O)c1cc(F)c(N2[C@@H]3CC[C@H]2C[C@@H](OCc2c(-c4c(F)cccc4F)noc2C2CC2)C3)c(F)c1 [Example 25-4B] | 2 nM
